Converted amounts (≈) assume the structure as drawn.

The record followed here is US20170305943A1, “COMPOUNDS FOR THE TREATMENT OF BACTERIAL INFECTIONS” (priority 2014, published 2017).

The assay concerns Clostridium difficile (Isolate ID ATCC 9689). Briefly: Bacterial Assay: Determination of Antibacterial Activity (MIC, broth microdilution or agar dilution). In kind it is cell-based. To be noted: Clostridioides difficile, ATCC9689, 48 h, read-out: C. difficile MIC Activity Range. As to the method: Bacterial Assay: Determination of Antibacterial Activity Compounds of the invention were tested for antimicrobial activity by susceptibility testing in liquid or on solid media. Minimum inhibitory concentrations (MICs) for compounds against each strain were determined by the broth microdilution or agar dilution method according to the guidelines of the Clinical Laboratories and Standards Institute, formerly the National Committee for Clinical Laboratory Standards (Clinical Laboratories and Standards Institute. Methods for Dilution Antimicrobial Susceptibility Tests for Bacteria That Grow Anaerobically; Approved Standard-Seventh Edition. Document M11-A7, CLSI, Wayne, Pa., 2007, Clinical Laboratories and Standards Institute). Briefly MICs were determined by visible inspection after 48 hours of growth in the presence of compounds, cultures were grown at 37° C. in anaerobic gas packs using reinforced clostridial medium supplemented with 0.1% defribrinated horse blood. The bacterial strains tested include C. difficile (Clostridium difficile (Isolate ID ATCC 9689)) (Table 2) and two drug resistant clinical isolates (Clostridium difficile (Isolate ID BI-9) and Clostridium difficile (Isolate ID 027-01) (Table 3).
MICs were determined to be within the activity ranges “A” activity≦1.01 μg/mL; “B” activity>1.0 μg/mL-4.0 μg/mL; “C” activity>4.0 μg/mL-16 μg/mL
The MIC is the lowest concentration that inhibits growth of the organism. Regarding `NC(=O)c1c(F)ccc(O[C@H](COC(=O)CCC(=O)O)c2nc(-c3ccc(C(F)(F)F)cc3)c(Br)o2)c1F` [Compound 70, 4-[(2R)-2-{5-bromo-4-[4-(trifluoromethyl)phenyl]-1,3-oxazol-2-yl}-2-(3-carbamoyl-2,4-difluorophenoxy)ethoxy]-4-oxobutanoic acid], the MIC was less than 1.01 µg/mL. In the case of `CN(Cc1ccncc1)C(=O)OCC(Oc1ccc(F)c(C(N)=O)c1F)c1nc(-c2ccc(C(F)(F)F)cc2)c(Br)o1` (centres unmarked) [Compound 71, 2-{5-bromo-4-[4-(trifluoromethyl)phenyl]-1,3-oxazol-2-yl}-2-(3-carbamoyl-2,4-difluorophenoxy)ethyl methyl(pyridin-4-ylmethyl)carbamate], the MIC was in the range of 4 to 16 µg/mL (≈ 6.1 to 24.4 µM).

As for `Cn1ccc(CNC(=O)OCC(Oc2ccc(F)c(C(N)=O)c2F)c2nc(-c3ccc(C(F)(F)F)cc3)c(Br)o2)n1` (centres unmarked) [Compound 72, 2-{5-bromo-4-[4-(trifluoromethyl)phenyl]-1,3-oxazol-2-yl}-2-(3-carbamoyl-2,4-difluorophenoxy)ethyl [(1-methyl-1H-pyrazol-3-yl)methyl]carbamate], the MIC was less than 1.01 µg/mL. Take `Cn1nccc1CNC(=O)OCC(Oc1ccc(F)c(C(N)=O)c1F)c1nc(-c2ccc(C(F)(F)F)cc2)c(Br)o1` (centres unmarked) [Compound 73, 2-{5-bromo-4-[4-(trifluoromethyl)phenyl]-1,3-oxazol-2-yl}-2-(3-carbamoyl-2,4-difluorophenoxy)ethyl [(1-methyl-1H-pyrazo1-5-yl)methyl]carbamate]: the MIC is less than 1.01 µg/mL. As for `CN(Cc1ccncn1)C(=O)OCC(Oc1ccc(F)c(C(N)=O)c1F)c1nc(-c2ccc(C(F)(F)F)cc2)c(Br)o1` (centres unmarked) [Compound 75, 2-{5-bromo-4-[4-(trifluoromethyl)phenyl]-1,3-oxazol-2-yl}-2-(3-carbamoyl-2,4-difluorophenoxy)ethyl methyl(pyrimidin-4-ylmethyl)carbamate], the figure is 1 to 4 µg/mL (≈ 1.52 to 6.09 µM). As for `Cn1cc(CNC(=O)OCC(Oc2ccc(F)c(C(N)=O)c2F)c2nc(-c3ccc(C(F)(F)F)cc3)c(Br)o2)cn1` (centres unmarked) [Compound 76, 2-{5-bromo-4-[4-(trifluoromethyl)phenyl]-1,3-oxazol-2-yl}-2-(3-carbamoyl-2,4-difluorophenoxy)ethyl [(1-methyl-1H-pyrazol-4-yl)methyl]carbamate], the figure is less than 1.01 µg/mL. `Cc1cccc(CNC(=O)OCC(Oc2ccc(F)c(C(N)=O)c2F)c2nc(-c3ccc(C(F)(F)F)cc3)c(Br)o2)n1` (centres unmarked) [Compound 77, 2-{5-bromo-4-[4-(trifluoromethyl)phenyl]-1,3-oxazol-2-yl}-2-(3-carbamoyl-2,4-difluorophenoxy)ethyl [(6-methylpyridin-2-yl)methyl]carbamate]: the MIC was 1 to 4 µg/mL (≈ 1.53 to 6.1 µM).

Turning to `Cc1cc(CNC(=O)OCC(Oc2ccc(F)c(C(N)=O)c2F)c2nc(-c3ccc(C(F)(F)F)cc3)c(Br)o2)ccn1` (centres unmarked) [Compound 78, 2-{5-bromo-4-[4-(trifluoromethyl)phenyl]-1,3-oxazol-2-yl}-2-(3-carbamoyl-2,4-difluorophenoxy)ethyl [(2-methylpyridin-4-yl)methyl]carbamate], the MIC is less than 1.01 µg/mL.

On to `Cn1ccnc1CNC(=O)OCC(Oc1ccc(F)c(C(N)=O)c1F)c1nc(-c2ccc(C(F)(F)F)cc2)c(Br)o1` (centres unmarked) [Compound 79, 2-{5-bromo-4-[4-(trifluoromethyl)phenyl]-1,3-oxazol-2-yl}-2-(3-carbamoyl-2,4-difluorophenoxy)ethyl [(1-methyl-1H-imidazol-2-yl)methyl]carbamate], for which the MIC was in the range of 4 to 16 µg/mL (≈ 6.21 to 24.8 µM). Next, `Cc1nn(C)cc1CNC(=O)OCC(Oc1ccc(F)c(C(N)=O)c1F)c1nc(-c2ccc(C(F)(F)F)cc2)c(Br)o1` (centres unmarked) [Compound 81, 2-{5-bromo-4-[4-(trifluoromethyl)phenyl]-1,3-oxazol-2-yl}-2-(3-carbamoyl-2,4-difluorophenoxy)ethyl [(1,3-dimethyl-1H-pyrazol-4-yl)methyl]carbamate]: less than 1.01 µg/mL; `Cc1c(CNC(=O)OCC(Oc2ccc(F)c(C(N)=O)c2F)c2nc(-c3ccc(C(F)(F)F)cc3)c(Br)o2)cnn1C` (centres unmarked) [Compound 82, 2-{5-bromo-4-[4-(trifluoromethyl)phenyl]-1,3-oxazol-2-yl}-2-(3-carbamoyl-2,4-difluorophenoxy)ethyl [(1,5-dimethyl-1H-pyrazol-4-yl)methyl]carbamate]: less than 1.01 µg/mL; `COc1ccc(CNC(=O)OCC(Oc2ccc(F)c(C(N)=O)c2F)c2nc(-c3ccc(C(F)(F)F)cc3)c(Br)o2)cn1` (centres unmarked) [Compound 83, 2-{5-bromo-4-[4-(trifluoromethyl)phenyl]-1,3-oxazol-2-yl}-2-(3-carbamoyl-2,4-difluorophenoxy)ethyl [(6-methoxypyridin-3-yl)methyl]carbamate]: less than 1.01 µg/mL.

With `COc1cc(CNC(=O)OCC(Oc2ccc(F)c(C(N)=O)c2F)c2nc(-c3ccc(C(F)(F)F)cc3)c(Br)o2)ccn1` (centres unmarked) [Compound 84, 2-{5-bromo-4-[4-(trifluoromethyl)phenyl]-1,3-oxazol-2-yl}-2-(3-carbamoyl-2,4-difluorophenoxy)ethyl [(2-methoxypyridin-4-yl)methyl]carbamate], the MIC is less than 1.01 µg/mL. With `Cn1c(CNC(=O)OCC(Oc2ccc(F)c(C(N)=O)c2F)c2nc(-c3ccc(C(F)(F)F)cc3)c(Br)o2)nc2ccccc21` (centres unmarked) [Compound 85, 2-{5-bromo-4-[4-(trifluoromethyl)phenyl]-1,3-oxazol-2-yl}-2-(3-carbamoyl-2,4-difluorophenoxy)ethyl [(1-methyl-1H-benzimidazol-2-yl)methyl]carbamate], the MIC was 1 to 4 µg/mL (≈ 1.44 to 5.76 µM). Take `Cc1ccc(CNC(=O)OCC(Oc2ccc(F)c(C(N)=O)c2F)c2nc(-c3ccc(C(F)(F)F)cc3)c(Br)o2)n1C` (centres unmarked) [Compound 86, 2-{5-bromo-4-[4-(trifluoromethyl)phenyl]-1,3-oxazol-2-yl}-2-(3-carbamoyl-2,4-difluorophenoxy)ethyl [(1,5-dimethyl-1H-pyrrol-2-yl)methyl]carbamate]: the MIC lay in the range of 1 to 4 µg/mL (≈ 1.52 to 6.08 µM). Regarding `Cc1cc(CNC(=O)OCC(Oc2ccc(F)c(C(N)=O)c2F)c2nc(-c3ccc(C(F)(F)F)cc3)c(Br)o2)n(C)n1` (centres unmarked) [Compound 87, 2-{5-bromo-4-[4-(trifluoromethyl)phenyl]-1,3-oxazol-2-yl}-2-(3-carbamoyl-2,4-difluorophenoxy)ethyl [(1,3-dimethyl-1H-pyrazol-5-yl)methyl]carbamate], the MIC lay in the range of 1 to 4 µg/mL (≈ 1.52 to 6.08 µM). Next, `Cc1cc(CNC(=O)OCC(Oc2ccc(F)c(C(N)=O)c2F)c2nc(-c3ccc(C(F)(F)F)cc3)c(Br)o2)nn1C` (centres unmarked) [Compound 88, 2-{5-bromo-4-[4-(trifluoromethyl)phenyl]-1,3-oxazol-2-yl}-2-(3-carbamoyl-2,4-difluorophenoxy)ethyl [(1,5-dimethyl-1H-pyrazol-3-yl)methyl]carbamate]: 1 to 4 µg/mL (≈ 1.52 to 6.08 µM); `Cc1ccc(CNC(=O)OCC(Oc2ccc(F)c(C(N)=O)c2F)c2nc(-c3ccc(C(F)(F)F)cc3)c(Br)o2)cn1` (centres unmarked) [Compound 89, 2-{5-bromo-4-[4-(trifluoromethyl)phenyl]-1,3-oxazol-2-yl}-2-(3-carbamoyl-2,4-difluorophenoxy)ethyl [(6-methylpyridin-3-yl)methyl]carbamate]: less than 1.01 µg/mL.

Consider `Cc1ncccc1CNC(=O)OCC(Oc1ccc(F)c(C(N)=O)c1F)c1nc(-c2ccc(C(F)(F)F)cc2)c(Br)o1` (centres unmarked) [Compound 90, 2-{5-bromo-4-[4-(trifluoromethyl)phenyl]-1,3-oxazol-2-yl}-2-(3-carbamoyl-2,4-difluorophenoxy)ethyl [(2-methylpyridin-3-yl)methyl]carbamate], for which the MIC is less than 1.01 µg/mL. Turning to `Cc1cnccc1CNC(=O)OCC(Oc1ccc(F)c(C(N)=O)c1F)c1nc(-c2ccc(C(F)(F)F)cc2)c(Br)o1` (centres unmarked) [Compound 91, 2-{5-bromo-4-[4-(trifluoromethyl)phenyl]1,3-oxazol-2-yl}-2-(3-carbamoyl-2,4-difluorophenoxy)ethyl [(3-methylpyridin-4-yl)methyl]carbamate], the MIC was less than 1.01 µg/mL. On to `NC(=O)c1c(F)ccc(OC(COC(=O)NCCn2ccccc2=O)c2nc(-c3ccc(C(F)(F)F)cc3)c(Br)o2)c1F` (centres unmarked) [Compound 92, 2-{5-bromo-4-[4-(trifluoromethyl)phenyl]-1,3-oxazol-2-yl}-2-(3-carbamoyl-2,4-difluorophenoxy)ethyl [2-(2-oxopyridin-1(2H)-yl)ethyl]carbamate], for which the MIC lay within 1 to 4 µg/mL (≈ 1.49 to 5.96 µM).

Take `NC(=O)c1c(F)ccc(OC(CO)c2nc(-c3ccc(F)cc3F)c(Br)o2)c1F` (centres unmarked) [Compound 99, 3-{1-[5-bromo-4-(2,4-difluorophenyl)-1,3-oxazol-2-yl]-2-hydroxyethoxy}-2,6-difluorobenzamide]: the MIC was less than 1.01 µg/mL. Take `NC(=O)c1c(F)ccc(OC(CO)c2nc(-c3ccc(Br)s3)c(Br)o2)c1F` (centres unmarked) [Compound 100, 3-{1-[5-bromo-4-(5-bromothiophen-2-yl)-1,3-oxazol-2-yl]-2-hydroxyethoxy}-2,6-difluorobenzamide]: the MIC was 1 to 4 µg/mL (≈ 1.91 to 7.63 µM). As to `CNCNC(=O)c1c(F)ccc(OCc2nc3cc(Cl)cnc3s2)c1F` [Compound 103], the MIC fell in the range of 4 to 16 µg/mL (≈ 10 to 40.1 µM).

Take `CCCCCCCCCOc1ccc(F)c(C(=N)N)c1F` [Compound 107, 2,6-difluoro-3-(nonyloxy)benzenecarboximidamide]: the MIC lay in the range of 4 to 16 µg/mL (≈ 13.4 to 53.6 µM). As to `NC(=O)c1c(F)ccc(OCCCc2nc3cc(Cl)ccc3s2)c1F` [Compound 109, 3-[3-(5-chloro-1,3-benzothiazol-2-yl)propoxy]-2,6-difluorobenzamide], the MIC lay within 1 to 4 µg/mL (≈ 2.61 to 10.4 µM).
